Bounds are passed on as bounds.

The target of one assay is T1, human MRGPRX2 (Homo sapiens, UniProt Q96LB1).
T1 construct: expressed in transfected cells
T1 sequence (Q96LB1 1-330): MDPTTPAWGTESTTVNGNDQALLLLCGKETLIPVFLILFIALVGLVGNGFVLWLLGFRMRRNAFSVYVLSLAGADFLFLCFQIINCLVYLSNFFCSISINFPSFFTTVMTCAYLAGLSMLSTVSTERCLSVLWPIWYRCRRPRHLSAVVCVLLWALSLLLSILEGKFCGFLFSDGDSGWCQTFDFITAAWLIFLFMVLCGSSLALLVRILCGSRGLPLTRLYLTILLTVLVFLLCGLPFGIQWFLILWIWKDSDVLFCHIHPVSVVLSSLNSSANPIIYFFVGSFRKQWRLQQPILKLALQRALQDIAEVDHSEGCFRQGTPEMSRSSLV
The assay is described as follows: MRGPRX2 activity: IP-One HTRF antagonist assay versus 0.3 uM Cortistatin 14. The assay is classed as cell-based. The following applies: CHO cells expressing human MRGPRX2; IP-1 HTRF; versus 0.3 uM Cortistatin 14 agonist; read-out: MRGPR2 Antagonist Activity. As to the method: CHO cells stably transfected to express human MRGPRX2 were maintained in an incubator at 37° C. with 5% CO2 and grown in F12 (HAM) media with 10% fetal bovine serum (FBS), 1% Glutamax, 1% penicillin/streptomycin, 800 μg/mL Geneticin (G418), and 300 μg/mL Hygromycin B.
Cells were plated in a […] assay plate at 20,000 cells per well in 12 μL of Opti-MEM and kept in an incubator overnight. On the day of the assay, compounds solubilized at 10 mM in DMSO were added as a 10-point curve (30 uM final top concentration with 1:3 serial dilutions) using a Tecan D300E digital dispenser. Agonists were diluted in assay buffer (final concentrations of 5.7 mM Tris-HCl, 43 mM NaCl, 50 mM LiCl, pH=8) and 2 μL of the agonist Cortistatin 14 (CPC Scientific, catalog CORT-002) are added to each well. Final concentrations of agonists were 0.3 μM Cortistatin. Final concentrations of DMSO were kept consistent across the plate. Plates were incubated in the dark for 1 h at 37° C. and then for 1 h at room temperature. IP-1 standards and HTRF detection reagents were added according to the IP-One-Gq Kit purchased from Cisbio (part number 62IPAPEJ) and incubated in the dark for 1 h at room temperature. The plate was read on a Molecular Devices SpectraMax iD5 plate reader. The HTRF ratio was calculated from the raw data and graphed using GraphPad Prism to calculate an IC50 value for each compound.
(§1) The activity ranges are denoted as follows: “+++++” denotes antagonist activity <100 nM; “++++” denotes antagonist activity between 100 and 500 nM; “+++” denotes activity between 501 and 1000 nM; “++” denotes activity between 1001 and 2500 nM; and “+” denotes activity >2500 nM
On the technique in general: Time-resolved FRET reads energy transfer from a long-lived donor to a nearby acceptor.
For the molecule `CC(=O)Nc1cccc(C(=O)N[C@H]2CC[C@@H](Nc3cc(C(F)(F)F)nc4ccc(Cl)cc34)CC2)c1` [4-7], the IC50 is less than 0.1 µM.
Take `CN(C)c1ccc(C(=O)N[C@H]2CC[C@@H](Nc3cc(C(F)(F)F)nc4ccccc34)CC2)cc1` [3-25]: the IC50 was 0.1 to 0.5 µM.
With `CC(=O)Nc1ccc(C(=O)N[C@H]2CC[C@@H](Nc3cc(C(F)(F)F)nc4ccc(Cl)cc34)CC2)cc1` [4-103], the IC50 was less than 0.1 µM.
With `CCNc1cccc(C(=O)N[C@H]2CC[C@@H](Nc3cc(C(F)(F)F)nc4ccc(Cl)cc34)CC2)c1` [4-282], the IC50 lay in the range of 0.1 to 0.5 µM.
The same measure, in the same setting: with `O=C(N[C@H]1CC[C@@H](Nc2cc(C(F)(F)F)nc3ccc(Cl)cc23)CC1)c1ccc2[nH]c(-c3ccncc3)nc2c1` [4-23] the figure was less than 0.1 µM.
`N#Cc1ccc(C(=O)N[C@H]2CC[C@@H](Nc3cc(C(F)(F)F)nc4ccccc34)CC2)s1` [4-242]: the IC50 fell in the range of 1 to 2.5 µM.
Regarding `COc1ccc(C(=O)N[C@H]2CC[C@@H](Nc3cc(C(F)(F)F)nc4ccccc34)CC2)cc1N(C)C` [4-258], the IC50 lay in the range of 0.501 to 1 µM.
For `O=C(N[C@H]1CC[C@@H](Nc2cc(C(F)(F)F)nc3ccccc23)CC1)c1cc(Cl)cs1` [4-251], the IC50 lay within 0.501 to 1 µM.
As to `O=C(N[C@H]1CC[C@@H](Nc2cc(C(F)(F)F)nc3ccccc23)CC1)c1ccccc1` [3-30], the IC50 is 0.1 to 0.5 µM.
Consider `O=C(N[C@H]1CC[C@@H](Nc2cc(C(F)(F)F)nc3ccccc23)CC1)c1coc2ccccc12` [4-272], for which the IC50 was 0.1 to 0.5 µM.
Same read-out and setting: with `CS(=O)(=O)c1ccc(C(=O)N[C@H]2CC[C@@H](Nc3cc(C(F)(F)F)nc4ccc(Cl)cc34)CC2)c(Cl)c1` [4-123] the figure was 0.1 to 0.5 µM; with `CC1C(C(=O)N[C@H]2CC[C@@H](Nc3cc(C(F)(F)F)nc4ccc(Cl)cc34)CC2)CC2CC1C2(C)C` (stereo partly shown) [4-200], 1 to 2.5 µM; with `O=C(N[C@H]1CC[C@@H](Nc2cc(C(F)(F)F)nc3ccccc23)CC1)c1cccc(F)c1` [3-42], 0.1 to 0.5 µM.
Still for that read-out and setting: under `Cc1cc(C(F)(F)F)nn1CC(=O)N[C@H]1CC[C@@H](Nc2cc(C(F)(F)F)nc3ccc(Cl)cc23)CC1` [4-141] stands 1 to 2.5 µM; under `CNC(=O)Nc1cccc(C(=O)N[C@H]2CC[C@@H](Nc3cc(C(F)(F)F)nc4ccc(Cl)cc34)CC2)c1` [Example 5A], less than 0.1 µM; under `O=C(N[C@H]1CC[C@@H](Nc2cc(C(F)(F)F)nc3ccc(Cl)cc23)CC1)c1n[nH]c2c1COCC2` [4-60], 0.501 to 1 µM.
For the molecule `O=C(N[C@H]1CC[C@@H](Nc2cc(C(F)(F)F)nc3ccccc23)CC1)c1cccs1` [3-36], the IC50 was in the range of 0.501 to 1 µM.
In the case of `O=C(N[C@H]1CC[C@@H](Nc2cc(C(F)(F)F)nc3ccc(Cl)cc23)CC1)c1ccc2nc(Cl)sc2c1` [4-57], the IC50 was in the range of 0.501 to 1 µM.

A further assay has as its system Human LAD2 cells. The assay is described as follows: Mast Cell Beta-Hexosaminidase Release Assay (versus 500 nM Cortistatin-14). The settings on record: 500 nM Cortistatin-14 agonist, read-out: MRGPR2 Antagonist Activity. It counts as cell-based. The method, then: Human LAD2 cells (NIH) were maintained in an incubator at 37° C. with 5% CO2 and cultured in StemPro-34 serum-free media (Gibco 10639011) supplemented with 2 mM L-glutamine, 100 U/ml penicillin, […] streptomycin and 100 ng/ml SCF (Invitrogen PEP0860), at a concentration of 2-5×10^5 cells/mL, with hemidepletion every 1-2 weeks.
Cells were transferred to SCF-Free medium at 2.5×10^5 cells/mL and kept in an incubator overnight. On the day of the assay, cells were washed twice in Assay Buffer (final concentrations 10 mM HEPES, 137 mM NaCl, 5.6 mM D-glucose, 2.7 mM KCl, 1 mM MgCl, 1.8 mM CaCl2, 0.4 mM Na2HPO4.7H2O, 0.04% BSA, pH=7.4) and plated in a 96-well v-bottom plate at 20,000 cells per well in 80 μL Assay Buffer. Antagonist compounds solubilized at 10 mM in DMSO were diluted in Assay Buffer to 10× final desired concentrations as a 10-point curve (10 μM final top concentration with 1:3 serial dilutions) and 10 μL added per well. Plates were then incubated for 1 hour at 37° C. Agonists were diluted in Assay Buffer to 10× desired concentrations and 10 μL of the appropriate agonist added to each well. The final concentration of Cortistatin-14 (Tocris 3374) used in antagonist assays was 500 nM. Final concentrations of DMSO were kept consistent across the plate. Plates were then incubated in a warm air oven for 30 minutes at 37° C., followed by centrifugation at 4° C. for 5 minutes at 450×g. 50 μL supernatant from each well was then transferred to a 96-well flat bottom plate containing 100 μL substrate solution per well (3.5 mg/mL p-Nitrophenyl-N-acetyl-β-D-glucosaminide (Sigma 487052) in Citrate Buffer containing a final concentration of 40 mM Citric Acid, 20 mM Na2HPO4.7H2O, pH=4.5). To the cell pellets left in the remaining assay buffer, 150 μL 0.1% Triton-X-100 was then added to each well, resuspended by pipetting up and down, and 50 μL cell lysates transferred to a second 96-well flat bottom plate containing 100 μL substrate solution per well. Plates containing transferred supernatant and cell lysates were then incubated in a warm air oven for 90 minutes at 37° C. After incubation, 50 μL of 400 mM Glycine buffer (pH 10.7) was added into each well and the plate was read on a Molecular Devices SpectraMax iD5 plate reader (absorbance at 405 nm with reference filter at 620 nm). After background subtraction, the percentage degranulation (percent beta-hexosaminidase release) was calculated as 100×(supernatant values)/(supernatant+lysate values), followed by analysis using GraphPad Prism software to calculate an IC50 value for each compound.
as §1
In the case of `O=C(N[C@H]1CC[C@@H](Nc2cc(C(F)(F)F)nc3ccc(Cl)cc23)CC1)c1ccc(F)cc1` [1-5, 4-fluoro-N-[(1s,4s)-4-{[6-chloro-2-(trifluoromethyl)quinolin-4-yl]amino}cyclohexyl]benzamide], the IC50 fell in the range of 0.1 to 0.5 µM.
Take `CNc1ccc(C(=O)N[C@H]2CC[C@@H](Nc3cc(C(F)(F)F)nc4ccc(Cl)cc34)CC2)cc1` [4-9]: the IC50 is less than 0.1 µM.
Turning to `O=C(N[C@H]1CC[C@@H](Nc2cc(C(F)(F)F)nc3ccccc23)CC1)c1ccc(Cl)cc1` [3-10], the IC50 was 0.1 to 0.5 µM.
The same measure, in the same setting: under `O=C(N[C@H]1CC[C@@H](Nc2cc(C(F)(F)F)nc3ccc(F)cc23)CC1)c1ccc(F)cc1` [1-4, 4-fluoro-N-[(1s,4s)-4-{[6-fluoro-2-(trifluoromethyl)quinolin-4-yl]amino}cyclohexyl]benzamide] stands 0.1 to 0.5 µM; under `CC(=O)Nc1cccc(C(=O)N[C@H]2CC[C@@H](Nc3cc(C(F)(F)F)nc4ccc(Cl)cc34)CC2)c1` [4-7], 0.1 to 0.5 µM; under `CN(C)c1ccc(C(=O)N[C@H]2CC[C@@H](Nc3cc(C(F)(F)F)nc4ccccc34)CC2)cc1` [3-25], 0.1 to 0.5 µM.
Turning to `N#Cc1cccc(C(=O)N[C@H]2CC[C@@H](Nc3nc(C(F)(F)F)nc4ccccc34)CC2)c1` [4-288], the IC50 lay in the range of 0.501 to 1 µM.
`O=C(N[C@H]1CC[C@@H](Nc2cc(C(F)(F)F)nc3ccccc23)CC1)c1ccccc1` [3-30]: the IC50 fell in the range of 0.501 to 1 µM.
As to `O=C(N[C@H]1CC[C@@H](Nc2nc(C(F)(F)F)nc3ccccc23)CC1)c1ccc(F)cc1` [1-7, 4-fluoro-N-[(1s,4s)-4-{[2-(trifluoromethyl)quinazolin-4-yl]amino}cyclohexyl]benzamide], the IC50 lay in the range of 0.501 to 1 µM.
Regarding `O=C(N[C@H]1CC[C@@H](Nc2cc(C(F)(F)F)nc3ccc(Cl)cc23)CC1)c1ccnc2[nH]ccc12` [4-139], the IC50 was less than 0.1 µM.

The values are drawn from patent US11970452B2, “Modulators of mas-related G-protein receptor X2 and related products and methods” (Escient Pharmaceuticals, Inc., priority 2020, dated 2024).
